From US11103509B2 (University of Kentucky Research Foundation, priority 2018, dated 2021)
Where two headings read alike, the source gives them in different places.

Columns and labels:
human mPGES-1 = target: T1, human mPGES-1 (Homo sapiens, UniProt O14684); experiment: in vitro inhibitory activity against human mPGES-1 (PGE2 enzyme immunoassay); format: biochemical; conditions: for inhibition at 10 µM: read-out: Inhibition (%) at 10 μM
T1 construct: made in house
T1 sequence (O14684 1-152): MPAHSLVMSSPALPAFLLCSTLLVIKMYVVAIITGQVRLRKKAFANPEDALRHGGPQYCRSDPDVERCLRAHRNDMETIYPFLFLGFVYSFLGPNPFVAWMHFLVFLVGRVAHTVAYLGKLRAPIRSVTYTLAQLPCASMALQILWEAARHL
Procedure: The above computational predictions were followed by in vitro activity assays for their actual inhibitory activity against human mPGES-1 using an ELISA assay previously-described.^16-17, 19 Specifically, a total of 18 FDA-approved drugs were assayed for their inhibitory activity against human mPGES-1.
The protocol for the protein preparation and in vitro activity assays were the same as described previously.^69-72 The enzyme activity assays were performed on ice in 1.5 ml microfuge tubes by using the expressed human mPGES-1. The reaction mixture contained: 0.2 M Na2HPO4/NaH2PO4, pH 7.2, 10 μL; 0.1 M GSH, 2.5 μL; diluted microsomal enzyme (80 μg/mL), 1 μL; PGH2 (0.31 mM in DMF), 5 μL; 1 μL inhibitor; and H2O in a final reaction volume of 100 μL. PGH2 was stored in dry ice and used to initiate the reaction. Compounds were incubated with the enzyme for 15 min at room temperature before the addition of cold PGH2 (1 μM final) to initiate the enzyme reaction. After 30 s, 10 μL of SnCl2 (40 mg/mL) in ethanol was added to stop the reaction. The non-enzymatic conversion of PGH2 to PGE2 was performed in the same buffer devoid of enzyme. The reaction mixture was placed on ice until PGE2 production was determined by the PGE2 enzyme immunoassay as described earlier. IC50 values of the inhibitors were calculated by using the GraphPad Prism 6.0.

pain in cancer patients [1] = experiment: clinical data mining: pain complaints in afatinib Phase III clinical trial NCT00656136; format: in vivo, human
Procedure: To address this question, data from phase III clinical trial (NCT00656136) was also analyzed for drug afatinib, another EGFR and HER2 dual inhibitor approved by the FDA in 2013.

pain in cancer patients [2] = conditions: cited from earlier work
[3] = 10 μM, single-concentration screening
[4] = NCT00656136, may include multiple types of pain from each patient
[5] = NCT00656136, with drug total 390

| Structure (SMILES) | IC50 (human mPGES-1) | inhibition at 10 µM (human mPGES-1; [3]) | further results |
| --- | --- | --- | --- |
| CCCCC[C@H](O)/C=C/[C@H]1[C@H](O)CC(=O)[C@@H]1CCCCCCC(=O)O [Alprostadil] | – | 11% | – |
| OCCN(CCO)c1nc(N2CCCCC2)c2nc(N(CCO)CCO)nc(N3CCCCC3)c2n1 [Dipyridamole] | – | 36% | – |
| C[C@]12CC[C@@H]3c4ccc(OC(=O)N(CCCl)CCCl)cc4CC[C@H]3[C@@H]1CC[C@@H]2OP(=O)(O)O [Estramustine Phosphate] | – | – | inhibition at 10 µM (human mPGES-1): 36% |
| CC1(C)S[C@@H]2[C@H](NC(=O)COc3ccccc3)C(=O)N2[C@H]1C(=O)[O-].[K+] [Penicillin V Potassium] | – | – | Inhibition (%) at 10 μM (human mPGES-1; [3]): 36% |
| CN(C)C/C=C/C(=O)Nc1cc2c(Nc3ccc(F)c(Cl)c3)ncnc2cc1O[C@H]1CCOC1 [afatinib] | – | – | analgesic effect (in words) (pain in cancer patients [1]; NCT00656136, compared to placebo): no analgesic effects at all; # of patients complaining pain/# of patients given afatinib, Counts: Total pain occurrence (pain in cancer patients [1]; [4]): 104/390; patients complaining pain, Percentage(%): Total pain occurrence (pain in cancer patients [1]; [4]): 26.67%; Back Pain, With drug pains (pain in cancer patients [2]; [5]): 29; Headache, With drug pains (pain in cancer patients [2]; [5]): 21; Pain In Extremity, With drug pains (pain in cancer patients [2]; [5]): 27; Pain-throat/pharynx/larynx, With drug pains (pain in cancer patients [2]; [5]): 27; # of patients complaining pain/# of patients given afatinib, Counts: Back Pain (pain in cancer patients [2]; NCT00656136): 29/390; # of patients complaining pain/# of patients given afatinib, Counts: Headache (pain in cancer patients [2]; NCT00656136): 21/390; # of patients complaining pain/# of patients given afatinib, Counts: Pain - chest/thorax (pain in cancer patients [2]; NCT00656136): 27/390; # of patients complaining pain/# of patients given afatinib, Counts: Pain in Extremity (pain in cancer patients [2]; NCT00656136): 27/390; patients complaining pain, Percentage(%): Back Pain (pain in cancer patients [2]; NCT00656136): 7.43%; patients complaining pain, Percentage(%): Headache (pain in cancer patients [2]; NCT00656136): 5.38%; patients complaining pain, Percentage(%): Pain - chest/thorax (pain in cancer patients [2]; NCT00656136): 6.92%; patients complaining pain, Percentage(%): Pain in Extremity (pain in cancer patients [2]; NCT00656136): 6.92% |
| CCCCC[C@H](O)/C=C/[C@H]1[C@H](O)CC(=O)[C@@H]1C/C=C\CCCC(=O)O [Dinoprostone] | – | 4% | – |
| CS(=O)(=O)CCNCc1ccc(-c2ccc3ncnc(Nc4ccc(OCc5cccc(F)c5)c(Cl)c4)c3c2)o1 [Lapatinib Ditosylate] | – | 99% | – |
| COc1cc(C)c(/C=C/C(C)=C/C=C/C(C)=C/C(=O)O)c(C)c1C [Acitretin] | 3.5 ± 1.6 µM | 83% | – |
| COc1cc2nc(N3CCN(C(=O)C4COc5ccccc5O4)CC3)nc(N)c2cc1OC (centres unmarked) [Doxazosin] | – | 21% | – |
| CC(C)(C)C(=O)OCOP(=O)(COCCn1cnc2c(N)ncnc21)OCOC(=O)C(C)(C)C [Adefovir Dipivoxil] | – | 19% | – |

The next lines start with results.

| IC50 (human mPGES-1) | inhibition at 10 µM (human mPGES-1; [3]) | Structure (SMILES) | further results |
| --- | --- | --- | --- |
| 3 ± 1.1 µM | 68% | C=C1/C(=C\C=C2/CCC[C@]3(C)[C@@H]([C@H](C)/C=C/[C@@H](O)C4CC4)CC[C@@H]23)C[C@@H](O)C[C@@H]1O [Calcipotriene] | – |
| – | 22% | COc1cc2nc(N(C)CCCNC(=O)C3CCCO3)nc(N)c2cc1OC (centres unmarked) [Alfuzosin] | – |
| 13.5 ± 4 µM | – | CO[C@@]1(NC(=O)C2SC(=C(C(N)=O)C(=O)[O-])S2)C(=O)N2C(C(=O)[O-])=C(CSc3nnnn3C)CS[C@@H]21.[Na+].[Na+] (some centres unmarked) [Cefotetan Disodium] | Inhibition (%) at 10 μM (human mPGES-1; [3]): 44% |
| 10.2 ± 2.5 µM | 52% | Cc1ccccc1C(=O)Nc1ccc(C(=O)N2CCCC(O)c3cc(Cl)ccc32)c(C)c1 (centres unmarked) [Tolvaptan] | – |
| 7.2 ± 2.4 µM | 57% | CO/N=C(\C(=O)N[C@@H]1C(=O)N2C(C(=O)O)=C(CSc3nc(=O)c(=O)[nH]n3C)CS[C@H]12)c1csc(N)n1 [Ceftriaxone] | – |
| – | 44% | C[C@]12C=CC(=O)C=C1CC[C@@H]1[C@@H]2[C@@H](O)C[C@@]2(C)[C@H]1CC[C@]2(O)C(=O)CO [Prednisolone] | – |
| 11.4 ± 1.1 µM | 53% | C[C@H]1[C@H](NC(=O)/C(=N\OC(C)(C)C(=O)O)c2csc(N)n2)C(=O)N1S(=O)(=O)O [Aztreonam] | – |
| 9 ± 2.3 µM | 54% | CCOC(=O)[C@H](CCc1ccccc1)N[C@@H](C)C(=O)N1[C@H](C(=O)O)C[C@H]2CCCC[C@@H]21 [Trandolapril] | – |
| 29.7 ± 6.3 µM | 47% | COCC1=C(C(=O)OC(C)OC(=O)OC(C)C)N2C(=O)[C@@H](NC(=O)/C(=N\OC)c3csc(N)n3)[C@H]2SC1 (some centres unmarked) [Cefpodoxime Proxetil] | – |
